The values that follow come from paper PMC7866854, “Pseudo-Dipeptide Bearing α,α-Difluoromethyl Ketone Moiety as Electrophilic Warhead with Activity against Coronaviruses” (International Journal of Molecular Sciences, 2021).

Like-named read-outs stand apart in the source and are kept apart here.

For data set [1], the system named is SARS-CoV-2 M^pro. To be noted: read-out: Exp. EC50; listed under SARS-CoV-2 Mpro; cited from earlier work.
Data set [2] concerns the target Anopheles gambiae acetylcholinesterase (AgAChE). The settings on record: read-out: IC50, AgAChE inhibitor; cited from earlier work.
The target of data set [3] is bovine pancreatic α-chymotrypsin. Further details: method as in PMID 2353815, PMID 3527255. To be noted: read-out: Ki, α-chymotrypsin inhibitor; cited from earlier work.
For data set [4], the target named is HIV-1 protease. Set-up: method as in doi:10.1039/c39910000110. The settings on record: read-out: Ki, HIV protease inhibitor; cited from earlier work.
The subject of data set [5] is SARS-CoV M^pro. The settings on record: read-out: IC50, SARS-CoV Mpro inhibitor; cited from earlier work.
For data set [6], the system named is hCoV-229E. Kind of data set: CPE-based antiviral assay (CellTiter-Glo cell viability as surrogate of CPE) in MRC5 cells infected with hCoV-229E. To be noted: Human coronavirus 229E; for EC50: read-out: EC50, inhibition of hCoV-229E replication.
Data set [7] in a line: in vitro. To be noted: human.

Consider `Cc1cc(C(=O)N[C@@H](C)C(=O)N[C@H](C(=O)N[C@@H](CC(C)C)C(=O)N[C@H](/C=C\C(=O)OCc2ccccc2)C[C@@H]2CCNC2=O)C(C)C)no1` [N3], for which, in data set [1], the EC50 was 16.8 ± 1.7 µM.
As for `CC(C)(C)c1cccc(C(=O)C(F)F)c1` [compound 1], the IC50 in data set [2] was 0.00605 µM.
With `CC(C)n1cc(C(=O)C(F)F)cn1` [compound 2], the concentration for half-maximal inhibition (IC50) in data set [2] is 0.802 µM.
With `CC(=O)NC(CC(C)C)C(=O)NC(Cc1ccccc1)C(=O)C(F)F` (stereo not drawn) [compound 4, Ac-Leu-Phe-CHF2], the inhibition constant Ki in data set [3] is 25 µM.
For the molecule `CC(C)C(NC(=O)OCc1ccccc1)C(=O)NC(Cc1ccccc1)C(=O)C(F)(F)C(Cc1ccccc1)NC(=O)C(NC(=O)OCc1ccccc1)C(C)C` (stereo not shown) [compound 6], the Ki in data set [4] was 0.0001 µM.
For `CC(C)CC(NC(=O)OCc1ccccc1)C(=O)NC(Cc1ccccc1)C(O)(O)C(F)(F)F` (stereo not drawn) [compound 7, Z-Leu-Phe-CF3], in data set [5], the IC50 is 10 µM.
Take `CC(C)CC(NC(=O)OCc1ccccc1)C(=O)NC(CCc1ccccc1)C(O)(O)C(F)F` (stereo not shown) [compound 8, Z-Leu-Homophe-CHF2]: the EC50 in data set [6] (MRC5, 72 h) came to 12.9 ± 1.22 µM. In data set [6] (MRC5 cells, 100 PFU/well, 72 h p.i., CellTiter-Glo, read-out: EC90, inhibition of hCoV-229E replication), the EC90 came out at 38.6 ± 0.67 µM.
Regarding `CCC(CC)COC(=O)[C@H](C)N[P@](=O)(OC[C@H]1O[C@@](C#N)(c2ccc3c(N)ncnn23)[C@H](O)[C@@H]1O)Oc1ccccc1` [remdesivir], the EC50 in data set [6] (MRC5 cells, 100 PFU/well, 72 h p.i., CellTiter-Glo) was 0.034 ± 0.0025 µM. Also, the CC50 in data set [7] was more than 10 µM.
